Data set [1] is described as follows: Bidirectional permeability assay (Caco-2 cells). The class given is in vitro ADME. To be noted: human, Caco-2, absorptive direction (A2B), 10 μM in FaSSIF buffer. How it is done:
(§1) Bidirectional Permeability Assay (Caco-2 Cells)
(§2) Caco-2 cells (Evotec) were seeded at a density of 70,000 cells/well in Millicell® 24-well cell culture insert plates and maintained in an incubator (37° C., 5% CO2, 95% RH) for 21 days with media change on alternate days.
(§3) Stock solutions (10 mM) of the test compounds, atenolol (low permeability marker), propranolol (high permeability marker) and digoxin (substrate for P-gp transport pathway) were prepared in dimethylsulfoxide (DMSO). An intermediate stock solution (1 mM) was prepared by diluting 10 μL of 10 mM master stock solution with 90 μL of neat DMSO. A working stock solution (10 μM) was prepared by diluting 50 μL of 1 mM with 4950 μL of FaSSIF buffer. Post addition of compounds to the FaSSIF, samples were subjected to sonication for 2 hours, and centrifuged at 4000 RPM for 30 minutes at 37° C. The 4 mL of resultant supernatant was directly used in the assay. The final DMSO concentration in the transport experiments was 1%.
(§4) On the day of assay, Caco-2 monolayers were washed twice with transport buffer (HBSS, pH 7.4) and pre-incubated for 30 min (37° C., 5% CO2, 95% RH) in an incubator. The electrical resistance of the monolayers was measured with a Millicell®—ERS system. Monolayers with trans-epithelial electrical resistance (TEER) values greater than 350 ohm·cm^2 were selected for the assay.
(§5) The assay was conducted in absorptive direction (A2B) and secretory (B2A) directions. Transport experiments were initiated by addition of transport assay buffer (FaSSIF buffer prepared in HBSS) consisting of compounds to the donor compartment (apical chamber A-B; basolateral chamber B-A) in duplicate (n=2) wells. Drug free HBSS buffer (pH 7.4) containing 1% bovine serum albumin (BSA) was introduced to the receiver (A-B-basolateral; B-A-Apical) compartments. The volumes of apical and basolateral compartments were 0.4 and 0.8 mL, respectively. After adding dosing solution, plates were incubated in an incubator for 120 minutes at 37° C. After 120 minutes, donor and receiver samples were collected and matrix matched (1:1, 30 μL study sample+30 μL blank buffer) with the opposite buffer. Dosing samples matrix matched (1:1, 30 μL study sample+30 μL blank buffer) with the opposite buffer. Samples were processed by adding acetonitrile containing internal standard (60 μL study sample+200 μL acetonitrile containing internal standard—Tolbutamide, 500 ng/mL). Samples were vortexed and centrifuged at 4000 rpm for 10 minutes. The obtained supernatant (100 μL) was diluted with 100 μL of water and transferred to fresh 96 well plates. The concentration of compounds in the samples was analyzed by liquid chromatography tandem mass spectrometry (LC-MS/MS) method using discovery grade bio-analytical method, as applicable.
(§6) The mean apparent permeability (Papp,×10^−6 cm/sec) of the test compounds, atenolol, propranolol and digoxin were calculated as follows:
(§7) [formula] where dq/dt=rate of transport (rate of transport of compound in the receiver compartment), C0=initial concentration in the donor compartment, A=surface area of the effective filter membrane.
(Caco-2 monolayers are a common model of the intestinal barrier.)

The next data set in a line: Bioavailability studies. The class given is in vivo, mice. As to conditions: male, mouse, plasma, intravenous 1 mg/kg, oral 10 mg/kg. How it is done:
Male mice (C57BL/6 or CD1) or Wistar rats of 8-9 weeks old were used. For each test compound, two groups of 3 animals each were used. One group was administered a single intravenous dose of 1 mg/kg (vehicle 100% DMSO) through the tail vein and the other group was administered a single oral dose of 10 mg/kg through gavage needle. The group that was administered an oral dose was fasted overnight. Blood samples were collected after 0.083, 0.25, 0.5, 1, 2, 4, 6, 8 and 24 hours following intravenous administration, and after 0.25, 0.5, 1, 2, 4, 6, 8 and 24 hours following oral administration. Blood samples were taken from saphenous vein. 0.2% EDTA was used as the anticoagulant. The samples were analyzed by a discovery grade bioanalytical method developed for the estimation of test compound in plasma, using an LC-MS/MS system.

The next data set relates to Caco-2 cells. The data set can be described thus: Bidirectional permeability assay (Caco-2 cells). The class given is in vitro ADME. To be noted: absorptive direction (A2B); 10 μM in FaSSIF buffer; 120 minutes. How it is done:
as §1, §2, §3, §4, §5, §6, §7

Each structure is given as a SMILES string.

For orientation: Papp A→B means how fast a substance crosses the layer from the apical side. In data set [1], `CCCCC1(CC)CN(c2ccccc2)c2cc(Br)c(OCCC(=O)O)cc2S(=O)(=O)C1` (racemic) [Example 1, 3-((7-Bromo-3-butyl-3-ethyl-1,1-dioxido-5-phenyl-2,3,4,5-tetrahydro-1,5-benzothiazepin-8-yl)oxy)propanoic acid] registered an apparent permeability from apical to basolateral (Papp A→B) at 120 min, 10 μM of 13.4 ×10⁻⁶ cm/s.
For `CCCCC1(CCCC)CN(c2ccccc2)c2cc(SC)c(OCC(O)C(=O)O)cc2S(=O)(=O)C1` (racemic) [Example 9, 3-((3,3-Dibutyl-7-(methylthio)-1,1-dioxido-5-phenyl-2,3,4,5-tetrahydro-1,5-benzothiazepin-8-yl)oxy)-2-hydroxypropanoic acid], the Papp A→B at 120 min, 10 μM in data set [1] was determined as 1.6 ×10⁻⁶ cm/s. Against the preceding molecule, the Papp A→B at 120 min, 10 μM is about 8.4-fold lower.
As to `CCCCC1(C)CN(c2ccccc2)c2cc(N(C)C)c(OCCC(=O)O)cc2S(=O)(=O)C1` (single isomer, unassigned) [29, enantiomer 1], in data set [1], the Papp A→B at 120 min, 10 μM came out at 20.5 ×10⁻⁶ cm/s.
The same measure, in the same setting: then `CCCCC1(CC)CN(c2ccccc2)c2cc(Cl)c(OC(C)CC(=O)O)cc2S(=O)(=O)C1` (single isomer, unassigned) [30, diastereomer 1], with 9 ×10⁻⁶ cm/s; and `CCCCC1(C)CN(c2ccccc2)c2cc(SC)c(OCC(O)C(=O)O)cc2S(=O)(=O)C1` (single isomer, unassigned) [32, diastereomer 1], with 3.3 ×10⁻⁶ cm/s.
Consider `CCCCC1(CC)CN(c2ccccc2)c2cc(SC)c(OCC(C)(F)C(=O)O)cc2S(=O)(=O)C1` (single isomer, unassigned) [35, diastereomer 1], for which the bioavailability in the data set “Bioavailability studies” (CD1 mice) was determined as 8%. The molecule also showed an apparent permeability from apical to basolateral (Papp A→B) at 120 min, 10 μM in data set [1] of 4 ×10⁻⁶ cm/s.
As for `CCCCC1(CC)CN(c2ccccc2)c2cc(SC)c(OCC(C)(O)C(=O)O)cc2S(=O)(=O)C1` (single isomer, unassigned) [48, diastereomer 2], in data set [1], the Papp A→B at 120 min, 10 μM came out at 3.2 ×10⁻⁶ cm/s.
Consider `CCCCC1(CC)CN(c2ccccc2)c2cc(Br)c(OCCC(=O)O)cc2S(=O)(=O)C1` (single isomer, unassigned) [Example 2, 3-((7-bromo-3-butyl-3-ethyl-1,1-dioxido-5-phenyl-2,3,4,5-tetrahydro-1,5-benzothiazepin-8-yl)oxy)propanoic acid], for which the bioavailability in “Bioavailability studies” (C57BL/6 mice) came out at 104%. In data set [1], this molecule showed a Papp A→B at 120 min, 10 μM of 3.4 ×10⁻⁶ cm/s.
In data set [1], `CCCCC1(CC)CN(c2ccccc2)c2cc(Cl)c(OCCC(=O)O)cc2S(=O)(=O)C1` (single isomer, unassigned) [Example 6, 3-((3-butyl-7-chloro-3-ethyl-1,1-dioxido-5-phenyl-2,3,4,5-tetrahydro-1,5-benzothiazepin-8-yl)oxy)propanoic acid] yielded a Papp A→B at 120 min, 10 μM of 13.6 ×10⁻⁶ cm/s.
On to `CCCCC1(CCCC)CN(c2ccccc2)c2cc(SC)c(OCC(O)C(=O)O)cc2S(=O)(=O)C1` (single isomer, unassigned) [Example 10, 3-((3,3-dibutyl-7-(methylthio)-1,1-dioxido-5-phenyl-2,3,4,5-tetrahydro-1,5-benzothiazepin-8-yl)oxy)-2-hydroxypropanoic acid], for which, in “Bioavailability studies” (C57BL/6 mice), the bioavailability was determined as 13%. This molecule came in with a Papp A→B at 120 min, 10 μM in data set [1] of 2.1 ×10⁻⁶ cm/s.
`CCCCC1(CCCC)CN(c2ccccc2)c2cc(SC)c(OCC(O)C(=O)O)cc2S(=O)(=O)C1` (single isomer, unassigned) [Example 11, 3-((3,3-dibutyl-7-(methylthio)-1,1-dioxido-5-phenyl-2,3,4,5-tetrahydro-1,5-benzothiazepin-8-yl)oxy)-2-hydroxypropanoic acid]: the “Permeability (Caco-2) Papp A2B” value in the data set on Caco-2 cells worked out at 1.5 ×10⁻⁶ cm/s.
Take `CCCCC1(CC)CN(c2ccccc2)c2cc(SC)c(OCCC(=O)O)cc2S(=O)(=O)C1` (single isomer, unassigned) [Example 13, 3-((3-butyl-3-ethyl-7-(methylthio)-1,1-dioxido-5-phenyl-2,3,4,5-tetrahydro-1,5-benzothiazepin-8-yl)oxy)propanoic acid]: in the data set “Bioavailability studies” (CD1 mice), the bioavailability was determined as 102%. The Papp A→B at 120 min, 10 μM in data set [1] is 10.3 ×10⁻⁶ cm/s.
On to `CCCCC1(C)CN(c2ccccc2)c2cc(SC)c(OCCC(=O)O)cc2S(=O)(=O)C1` (single isomer, unassigned) [Example 24, 3-((3-butyl-3-methyl-7-(methylthio)-1,1-dioxido-5-phenyl-2,3,4,5-tetrahydro-1,5-benzothiazepin-8-yl)oxy)propanoic acid], for which the apical-to-basolateral permeability (Papp A→B) at 120 min, 10 μM in data set [1] amounted to 22.5 ×10⁻⁶ cm/s.
The same measure, in the same setting: as for `CCCCC1(CCCC)CN(c2ccccc2)c2cc(Br)c(OCCC(=O)O)cc2S(=O)(=O)C1` [Example 4, 3-((7-Bromo-3,3-dibutyl-1,1-dioxido-5-phenyl-2,3,4,5-tetrahydro-1,5-benzothiazepin-8-yl)oxy)propanoic acid], the figure is 2.2 ×10⁻⁶ cm/s; as for `CCCCC1(CCCC)CN(c2ccccc2)c2cc(SC)c(OCCC(=O)O)cc2S(=O)(=O)C1` [Example 15, 3-((3,3-dibutyl-7-(methylthio)-1,1-dioxido-5-phenyl-2,3,4,5-tetrahydro-1,5-benzothiazepin-8-yl)oxy)propanoic acid], 9.7 ×10⁻⁶ cm/s; as for `CCCCC1(CC)CN(c2ccccc2)c2cc(SC)c(OCC(C)(F)C(=O)O)cc2S(=O)(=O)C1` (centres unmarked) [Example 34, 3-((3-butyl-3-ethyl-7-(methylthio)-1,1-dioxido-5-phenyl-2,3,4,5-tetrahydro-1,5-benzothiazepin-8-yl)oxy)-2-fluoro-2-methylpropanoic acid], 5.4 ×10⁻⁶ cm/s.

The values are drawn from patent publication US11773071B2, “Benzothiazepine compounds and their use as bile acid modulators” (Albireo AB, priority 2019, dated 2023).
